According to ChEMBL document CHEMBL4433199, “First-in-class allosteric inhibitors of bacterial IMPDHs” (Eur J Med Chem, 2019):
The source made the active and inactive calls. The rule behind the calls is not given here.

Tests used:
[1] = target: T1, Inosine-5'-monophosphate dehydrogenase (Pseudomonas aeruginosa (strain ATCC 15692 / DSM 22644 / CIP 104116 / JCM14847 / LMG 12228 / 1C / PRS 101 / PAO1), UniProt Q9HXM5); assay: Inhibition of Pseudomonas aeruginosa IMPDH using IMP as substrate in the presence of NAD+ incubated for 70 secs
T1 sequence (Q9HXM5 whole entry): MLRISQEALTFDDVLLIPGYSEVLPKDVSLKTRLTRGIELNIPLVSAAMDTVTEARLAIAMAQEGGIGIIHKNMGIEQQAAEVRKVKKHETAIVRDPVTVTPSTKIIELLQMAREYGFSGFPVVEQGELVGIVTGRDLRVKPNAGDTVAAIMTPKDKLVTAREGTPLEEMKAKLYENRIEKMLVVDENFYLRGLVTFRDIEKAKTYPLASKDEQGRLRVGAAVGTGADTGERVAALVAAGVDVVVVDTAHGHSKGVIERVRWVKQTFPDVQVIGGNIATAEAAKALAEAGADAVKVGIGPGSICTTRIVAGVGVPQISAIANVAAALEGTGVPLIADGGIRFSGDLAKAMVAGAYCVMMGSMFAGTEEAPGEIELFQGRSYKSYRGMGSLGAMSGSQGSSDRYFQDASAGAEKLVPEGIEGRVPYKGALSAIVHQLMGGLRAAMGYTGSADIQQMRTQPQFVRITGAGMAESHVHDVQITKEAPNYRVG

[2] = target: T2, Inosine-5'-monophosphate dehydrogenase (Pseudomonas aeruginosa (strain ATCC 15692 / DSM 22644 / CIP 104116 / JCM14847 / LMG 12228 / 1C / PRS 101 / PAO1)) (UniProt Q9HXM5); assay: Competitive inhibition of Pseudomonas aeruginosa IMPDH using IMP as substrate and NAD+ in presence of varying ATP incubated for 70 secs
T2 sequence (whole entry): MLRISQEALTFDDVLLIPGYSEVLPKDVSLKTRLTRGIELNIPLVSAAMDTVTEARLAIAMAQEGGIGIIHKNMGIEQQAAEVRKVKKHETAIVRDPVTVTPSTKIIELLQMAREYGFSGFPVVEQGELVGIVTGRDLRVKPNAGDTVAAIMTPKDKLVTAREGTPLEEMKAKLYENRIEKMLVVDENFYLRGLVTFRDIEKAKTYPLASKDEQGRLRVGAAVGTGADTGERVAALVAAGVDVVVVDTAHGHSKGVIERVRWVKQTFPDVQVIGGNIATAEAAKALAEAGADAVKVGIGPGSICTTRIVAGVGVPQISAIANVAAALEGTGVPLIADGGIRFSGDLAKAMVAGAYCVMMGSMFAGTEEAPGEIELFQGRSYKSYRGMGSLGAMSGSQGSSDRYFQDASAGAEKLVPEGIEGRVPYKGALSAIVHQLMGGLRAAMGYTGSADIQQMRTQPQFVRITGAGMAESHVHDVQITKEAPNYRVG

[3] = target: T2, Inosine-5'-monophosphate dehydrogenase (Pseudomonas aeruginosa (strain ATCC 15692 / DSM 22644 / CIP 104116 / JCM14847 / LMG 12228 / 1C / PRS 101 / PAO1)); assay: Inhibition of Pseudomonas aeruginosa IMPDH at 46.2 uM using IMP as substrate in the presence of NAD+ incubated for 70 secs relative to control
[4] = target: T2, Inosine-5'-monophosphate dehydrogenase (Pseudomonas aeruginosa (strain ATCC 15692 / DSM 22644 / CIP 104116 / JCM14847 / LMG 12228 / 1C / PRS 101 / PAO1)); assay: Inhibition of Pseudomonas aeruginosa IMPDH assessed as Km for IMP at 20 uM using IMP as substrate in presence of 2 mM NAD+ and 0.2 mM MgATP (reference value: 483 +/- 65 microM)
[5] = target: T2, Inosine-5'-monophosphate dehydrogenase (Pseudomonas aeruginosa (strain ATCC 15692 / DSM 22644 / CIP 104116 / JCM14847 / LMG 12228 / 1C / PRS 101 / PAO1)); assay: Inhibition of Pseudomonas aeruginosa IMPDH at 47.1 uM using IMP as substrate in the presence of NAD+ incubated for 70 secs relative to control
[6] = target: T2, Inosine-5'-monophosphate dehydrogenase (Pseudomonas aeruginosa (strain ATCC 15692 / DSM 22644 / CIP 104116 / JCM14847 / LMG 12228 / 1C / PRS 101 / PAO1)); assay: Inhibition of Pseudomonas aeruginosa IMPDH at 49.8 uM using IMP as substrate in the presence of NAD+ incubated for 70 secs relative to control
[7] = target: T2, Inosine-5'-monophosphate dehydrogenase (Pseudomonas aeruginosa (strain ATCC 15692 / DSM 22644 / CIP 104116 / JCM14847 / LMG 12228 / 1C / PRS 101 / PAO1)); assay: Inhibition of Pseudomonas aeruginosa IMPDH at 47.2 uM using IMP as substrate in the presence of NAD+ incubated for 70 secs relative to control
[8] = target: T2, Inosine-5'-monophosphate dehydrogenase (Pseudomonas aeruginosa (strain ATCC 15692 / DSM 22644 / CIP 104116 / JCM14847 / LMG 12228 / 1C / PRS 101 / PAO1)); assay: Inhibition of Pseudomonas aeruginosa IMPDH assessed as Km for IMP at 10 uM using IMP as substrate in presence of 2 mM NAD+ and 0.2 mM MgATP (reference value: 483 +/- 65 microM)
[9] = target: T2, Inosine-5'-monophosphate dehydrogenase (Pseudomonas aeruginosa (strain ATCC 15692 / DSM 22644 / CIP 104116 / JCM14847 / LMG 12228 / 1C / PRS 101 / PAO1)); assay: Inhibition of Pseudomonas aeruginosa IMPDH at 37.1 uM using IMP as substrate in the presence of NAD+ incubated for 70 secs relative to control
[10] = target: T2, Inosine-5'-monophosphate dehydrogenase (Pseudomonas aeruginosa (strain ATCC 15692 / DSM 22644 / CIP 104116 / JCM14847 / LMG 12228 / 1C / PRS 101 / PAO1)); assay: Inhibition of Pseudomonas aeruginosa IMPDH at 48.2 uM using IMP as substrate in the presence of NAD+ incubated for 70 secs relative to control
[11] = target: T2, Inosine-5'-monophosphate dehydrogenase (Pseudomonas aeruginosa (strain ATCC 15692 / DSM 22644 / CIP 104116 / JCM14847 / LMG 12228 / 1C / PRS 101 / PAO1)); assay: Inhibition of Pseudomonas aeruginosa IMPDH at 43.4 uM using IMP as substrate in the presence of NAD+ incubated for 70 secs relative to control
[12] = target: T2, Inosine-5'-monophosphate dehydrogenase (Pseudomonas aeruginosa (strain ATCC 15692 / DSM 22644 / CIP 104116 / JCM14847 / LMG 12228 / 1C / PRS 101 / PAO1)); assay: Non-competitive inhibition of Pseudomonas aeruginosa IMPDH using IMP as substrate and NAD+ in presence of ATP incubated for 70 secs
[13] = target: T2, Inosine-5'-monophosphate dehydrogenase (Pseudomonas aeruginosa (strain ATCC 15692 / DSM 22644 / CIP 104116 / JCM14847 / LMG 12228 / 1C / PRS 101 / PAO1)); assay: Inhibition of Pseudomonas aeruginosa IMPDH at 50.8 uM using IMP as substrate in the presence of NAD+ incubated for 70 secs relative to control
[14] = target: T2, Inosine-5'-monophosphate dehydrogenase (Pseudomonas aeruginosa (strain ATCC 15692 / DSM 22644 / CIP 104116 / JCM14847 / LMG 12228 / 1C / PRS 101 / PAO1)); assay: Inhibition of Pseudomonas aeruginosa IMPDH at 55.9 uM using IMP as substrate in the presence of NAD+ incubated for 70 secs relative to control
[15] = target: T2, Inosine-5'-monophosphate dehydrogenase (Pseudomonas aeruginosa (strain ATCC 15692 / DSM 22644 / CIP 104116 / JCM14847 / LMG 12228 / 1C / PRS 101 / PAO1)); assay: Inhibition of Pseudomonas aeruginosa IMPDH at 35.1 uM using IMP as substrate in the presence of NAD+ incubated for 70 secs relative to control
[16] = target: T2, Inosine-5'-monophosphate dehydrogenase (Pseudomonas aeruginosa (strain ATCC 15692 / DSM 22644 / CIP 104116 / JCM14847 / LMG 12228 / 1C / PRS 101 / PAO1)); assay: Competitive inhibition of Pseudomonas aeruginosa IMPDH using IMP as substrate at varying levels and NAD+ in presence of ATP incubated for 70 secs
[17] = compound: N#CC1=C(N)Oc2[nH]c(=O)[nH]c(=O)c2C1c1ccc([N+](=O)[O-])cc1; assay: (§1) Inhibition of Pseudomonas aeruginosa IMPDH assessed as Vmax for IMP at 10 uM using IMP as substrate in presence of 2 mM NAD+ and 0.2 mM MgATP (reference value: 3.74 +/- 0.22 U/mg)
[18] = compound: CC(=O)Nc1ccc(C2C3=C(Nc4c2c(=O)[nH]c(=O)n4Cc2ccccc2)c2ccccc2C3=O)cc1; assay: as §1
[19] = compound: CCOc1ccc(-c2cc(C(=O)O)nc3[nH]nc(-c4ccc(Cl)cc4)c23)cc1; assay: (§2) Inhibition of Pseudomonas aeruginosa IMPDH assessed as Vmax for IMP at 20 uM using IMP as substrate in presence of 2 mM NAD+ and 0.2 mM MgATP (reference value: 3.74 +/- 0.22 U/mg)
[20] = compound: CC(=O)N1CCOc2cc(S(=O)(=O)Nc3ccc(F)c(Cl)c3)ccc21; assay: as §2

CCOc1ccc(-c2cc(C(=O)O)nc3[nH]nc(-c4ccc(Cl)cc4)c23)cc1
IC50 ([1]; read-out: IC50): 18.3 µM | inhibition [2]: Active | inhibition [3]: 73% | K0.5 [4]: 616 µM

CC(=O)Nc1ccc(-c2cc(C(=O)O)nc3[nH]nc(-c4ccc(C)cc4)c23)cc1
inhibition [5]: 78.3% | IC50 ([1]; read-out: IC50): 23 µM | inhibition [2]: Active

COc1ccc(-n2c(=O)[nH]cc(C(=O)Nc3cc(C)ccc3C)c2=O)cc1
inhibition [6]: 108% | IC50 [1]: Not Active

CC(=O)N1CCOc2cc(S(=O)(=O)Nc3ccc(F)c(Cl)c3)ccc21
inhibition [7]: 81.5% | IC50 ([1]; read-out: IC50): 17.1 µM | inhibition [2]: Active | K0.5 [4]: 747 µM

CC(=O)Nc1ccc(C2C3=C(Nc4c2c(=O)[nH]c(=O)n4Cc2ccccc2)c2ccccc2C3=O)cc1 (centres undefined)
K0.5 [8]: 1310 µM | IC50 ([1]; read-out: IC50): 2.8 µM | inhibition [2]: Active | inhibition [9]: 93.8%

Cc1ccc(-n2c(=O)[nH]cc(C(=O)Nc3ccc(C(C)C)cc3)c2=O)cc1C
inhibition [10]: 75.4% | IC50 [1]: Not Active

O=C(CCS(=O)(=O)c1ccc2c(c1)SCC(=O)N2)NCCCc1ccccc1
inhibition [11]: 76.7% | IC50 ([1]; read-out: IC50): 3.1 µM | inhibition [12]: Active

COc1ccccc1-c1noc(CCC(=O)Nc2ccc(Cl)cc2)n1
IC50 ([1]; read-out: IC50): 2.6 µM | inhibition [13]: 70.6% | inhibition [12]: Active

COc1cccc(CNC(=O)Cn2ncc3ccccc32)c1OC
inhibition [14]: 95.2% | IC50 [1]: Not Active

Cc1cc2c(C(C)C)c(O)c(O)c(C=O)c2c(O)c1-c1c(C)cc2c(C(C)C)c(O)c(O)c(C=O)c2c1O [GOSSYPOL]
inhibition [15]: 100% | inhibition [16]: Active | IC50 ([1]; read-out: IC50): 0.9 µM

B1: Inosine-5'-monophosphate dehydrogenase (Pseudomonas aeruginosa (strain ATCC 15692 / DSM 22644 / CIP 104116 / JCM14847 / LMG 12228 / 1C / PRS 101 / PAO1)), … (protein)
chain: MLRISQEALTFDDVLLIPGYSEVLPKDVSLKTRLTRGIELNIPLVSAAMDTVTEARLAIAMAQEGGIGIIHKNMGIEQQAAEVRKVKKHETAIVRDPVTVTPSTKIIELLQMAREYGFSGFPVVEQGELVGIVTGRDLRVKPNAGDTVAAIMTPKDKLVTAREGTPLEEMKAKLYENRIEKMLVVDENFYLRGLVTFRDIEKAKTYPLASKDEQGRLRVGAAVGTGADTGERVAALVAAGVDVVVVDTAHGHSKGVIERVRWVKQTFPDVQVIGGNIATAEAAKALAEAGADAVKVGIGPGSICTTRIVAGVGVPQISAIANVAAALEGTGVPLIADGGIRFSGDLAKAMVAGAYCVMMGSMFAGTEEAPGEIELFQGRSYKSYRGMGSLGAMSGSQGSSDRYFQDASAGAEKLVPEGIEGRVPYKGALSAIVHQLMGGLRAAMGYTGSADIQQMRTQPQFVRITGAGMAESHVHDVQITKEAPNYRVG
Vmax [17]: 3.64 U/mg | Vmax [18]: 3.34 U/mg | Vmax [19]: 3.14 U/mg | Vmax [20]: 2.81 U/mg
